# Measurements as given in US5369098A, “Hydroxymethyl cyclobutyl purines” (E. R. Squibb & Sons, Inc., priority 1989, dated 1994).
# How the values were obtained:
# Format in all cases: cell-based
# [1] = Reduction of viability of uninfected CEM cells (XTT-PMS); conditions: human, footnotes *** and **** to HIV, 7 days, read-out: Minimum cytotoxic drug concentration that reduces cell viability by 50%
# Method: HIV antiviral assay: Suspensions of CEM cells (P. L. Nara, et. al., Nature 332, 469(1988)) were infected at a multiplicity of infection of 0.12 TCID50 /cell with HIV (strain HTLV-III B). After adsorption for 1-2 hours at 37° C., infected cells were diluted in growth medium (RPMI 1640 containing the antibiotics penicillin plus streptomycin and 10% fetal calf serum) to give a final cell concentration of 1×10^4 viable cells/culture well in the presence of serial dilutions of the test compound, starting at 100 μg/ml. Triplicate samples at each drug concentration were used. Cultures of uninfected CEM cells were similarly prepared and incubated with serial dilutions of test compound in duplicate. All assays were performed in 96 well disposable cell culture plates. Untreated (infected and uninfected) cells were included as controls. […] Following incubation, viable cell numbers were counted in each well using a colorimetric assay following incubation of cells with XTT-PMS solution (XTT tetrazolium reagent plus phenazine methosulfate, PMS). Percent reduction of viral cytopathic effect (CPE) in drug treated compared to untreated virus infected cells, and percent reduction of cell viability in drug treated uninfected cells compared to untreated controls were calculated and plotted versus the drug concentrations tested. […]
# [2] = test system: HSV-2 (herpes simplex virus type 2, strain 186); experiment: HSV-2 antiviral assay (plaque reduction in WI-38 cell monolayers); conditions: Human alphaherpesvirus 2, 96 h; WI-38 cells; plaque reduction of at least 50%; 4 days at 37° C.; read-out: ID50 for HSV-2
# Method: (§1) Assays were performed in cell culture systems to determine the concentrations of compounds that are effective in preventing several kinds of viral infections. HSV-1 (herpes simplex virus type 1, strain Schooler), HSV-2 (herpes simplex virus type 2, strain 186), VZV (varicella zoster virus, strain ELLEN), MuLV (murine leukemia virus, strain CAS), HIV (human immunodeficiency virus, strain HTLV-IIIB). Cell Culture Assays: HSV-1, HSV-2, and VZV antiviral assays: Virus was adsorbed to WI-38 cell culture monolayers in 6 well culture plates (Costar, Cambridge, Mass.) for 1 hour prior to addition of maintenance medium containing duplicate dilutions of the test compound. Inhibition of plaque development was evaluated on fixed and stained monolayers after 4 days incubation at 37° C. for HSV-1 and HSV-2 and after 6-7 days incubation at 37° C. for VZV. ID50 values were determined from the drug concentration which conferred at least a 50% plaque reduction compared to virus controls.
# [3] = test system: HSV-1 (herpes simplex virus type 1, strain Schooler); experiment: HSV-1 antiviral assay (plaque reduction in WI-38 cell monolayers); conditions: Human alphaherpesvirus 1, 96 h; WI-38 cells; plaque reduction of at least 50%; 4 days at 37° C.; read-out: ID50 for HSV-1
# Method: as §1
# [4] = test system: HIV (human immunodeficiency virus, strain HTLV-IIIB); experiment: HIV antiviral assay (reduction of viral cytopathic effect in CEM cells, XTT-PMS); conditions: Human immunodeficiency virus 1, IIIB, CCRF-CEM, 168 h, minimum drug concentration that inhibits CPE by 50%, 7 days at 37° C., read-out: ID50 for HIV
# Method: Assays were performed in cell culture systems to determine the concentrations of compounds that are effective in preventing several kinds of viral infections. HSV-1 (herpes simplex virus type 1, strain Schooler), HSV-2 (herpes simplex virus type 2, strain 186), VZV (varicella zoster virus, strain ELLEN), MuLV (murine leukemia virus, strain CAS), HIV (human immunodeficiency virus, strain HTLV-IIIB). Cell Culture Assays: HIV antiviral assay: Suspensions of CEM cells (P. L. Nara, et. al., Nature 332, 469(1988)) were infected at a multiplicity of infection of 0.12 TCID50 /cell with HIV (strain HTLV-III B). […] Following incubation, viable cell numbers were counted in each well using a colorimetric assay following incubation of cells with XTT-PMS solution (XTT tetrazolium reagent plus phenazine methosulfate, PMS). Percent reduction of viral cytopathic effect (CPE) in drug treated compared to untreated virus infected cells, and percent reduction of cell viability in drug treated uninfected cells compared to untreated controls were calculated and plotted versus the drug concentrations tested. […]
# [5] = test system: MuLV (murine leukemia virus, strain CAS); experiment: MuLV antiviral assay (syncytial plaques, SC-1 cells / XC cells); conditions: SC1, XC cell overlay, syncytial plaques counted, read-out: ID50 for MuLV
# Method: Assays were performed in cell culture systems to determine the concentrations of compounds that are effective in preventing several kinds of viral infections.
# HSV-1 (herpes simplex virus type 1, strain Schooler), HSV-2 (herpes simplex virus type 2, strain 186), VZV (varicella zoster virus, strain ELLEN), MuLV (murine leukemia virus, strain CAS), HIV (human immunodeficiency virus, strain HTLV-IIIB). Cell Culture Assays:
# MuLV antiviral assay: Antiviral assays using MuLV were performed with some modification, as described by Rowe et al. and Shannon et al.. SC-1 cells were planted at approximately 2×10^5 cell per well in 6 well plates. After overnight incubation at 37° C., the cell cultures were sensitized with DEAE-Dextran for one hour at 37° C., rinsed and inoculated with MuLV. Cultures were re-fed with growth medium containing different concentrations of the test compound. After three more days at 37° C., cultures were re-fed with fresh medium plus test compounds and incubated at 37° C. for an additional 3 days. Cultures were then washed to remove medium, ultraviolet light irradiated, and planted with approximately 5×10^5 XC cells per well in cell growth medium containing the appropriate concentration of the test compound. […] Finally the cultures were rinsed, stained and syncytial plaques were counted. […]
# [6] = test system: VZV (varicella zoster virus, strain ELLEN); experiment: VZV antiviral assay (plaque reduction in WI-38 cell monolayers); conditions: Human alphaherpesvirus 3; WI-38 cells; plaque reduction of at least 50%; 6-7 days at 37° C.; read-out: ID50 for VZV
# Method: as §1
# [7] = Cytotoxicity by microscopic examination of the cell sheet; conditions: human, WI-38 cells
SMILES,CC50 at 168 h [1] [µM],IC50 [2] [µM],IC50 [3] [µM],IC50 [4] [µM],IC50 [5] [µM],IC50 [6] [µM],"MCC at 96 h ([7]; footnote * to HSV-1 and HSV-2, 4 days, read-out: Cytotoxic concentration by microscopic examination of the cell sheet (HSV-1 and HSV-2 assays)) [µM]","MCC ([7]; footnote ** to VZV, 6-7 days, read-out: Cytotoxic concentration by microscopic examination of the cell sheet (VZV assay)) [µM]"
"Nc1nc2c(ncn2[C@H]2C[C@@H](CO)C2)c(=O)[nH]1 [Example 1, (cis)-2-amino-1,9-dihydro-9-[3-(hydroxymethyl)cyclobutyl]-6H-purin-6-one]",> 425,9 to 21,9 to 21,230,43 to 106,21,,
"Nc1ncnc2c1ncn2[C@H]1C[C@@H](CO)C1 [Example 2, (cis)-3-(6-Amino-9H-purin-9-yl)cyclobutanemethanol]",> 456,456,456,301,23 to 46,> 114,456,228
